Legend:
Assay type in all cases: in vivo
Kochia (Kochia scoparia) [1] = assay: Test A preemergence; details: preemergence
Summary of the method: (§1)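 Ratings of 0 (no effect) to 100 (complete control) come from visual comparison with untreated controls roughly 10 d after treatment. Test chemicals, formulated in a non-phytotoxic solvent mixture with surfactant, were applied either as a preemergence directed soil spray on seeded soil or postemergence to one- to two-leaf plants 2 to 10 cm tall.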

[2] = system: barnyardgrass (Echinochloa crus-galli); assay: Test A preemergence; details: preemergence
Summary of the method: as §1

[3] = system: giant foxtail (Setaria faberii); assay: Test A preemergence; details: preemergence
Summary of the method: as §1

[4] = system: pigweed (Amaranthus retroflexus); assay: Test A preemergence; details: preemergence
[5] = system: ragweed (common ragweed, Ambrosia elatior); assay: Test A preemergence; details: preemergence
Summary of the method: as §1

[6] = system: ryegrass, Italian (Italian ryegrass, Lolium multiflorum); assay: Test A preemergence; details: preemergence
Summary of the method: as §1

[7] = system: Galium (catchweed bedstraw, Galium aparine); assay: Test A postemergence; details: postemergence, 0 to 100 scale (0 no effect, 100 complete control)
Summary of the method: as §1

Kochia (Kochia scoparia) [8] = assay: Test A postemergence; details: postemergence, 0 to 100 scale (0 no effect, 100 complete control)
Summary of the method: as §1

[9] = system: barnyardgrass (Echinochloa crus-galli); assay: Test A postemergence; details: postemergence, 0 to 100 scale (0 no effect, 100 complete control)
Summary of the method: as §1

[10] = system: blackgrass (Alopecurus myosuroides); assay: Test A postemergence; details: postemergence, 0 to 100 scale (0 no effect, 100 complete control)
Summary of the method: as §1

corn (Zea mays) = assay: Test A postemergence; details: postemergence, 0 to 100 scale (0 no effect, 100 complete control)
Summary of the method: as §1

[11] = system: giant foxtail (Setaria faberii); assay: Test A postemergence; details: postemergence, 0 to 100 scale (0 no effect, 100 complete control)
Summary of the method: as §1

[12] = system: pigweed (Amaranthus retroflexus); assay: Test A postemergence; details: postemergence, 0 to 100 scale (0 no effect, 100 complete control)
Summary of the method: as §1

[13] = system: ragweed (common ragweed, Ambrosia elatior); assay: Test A postemergence; details: postemergence, 0 to 100 scale (0 no effect, 100 complete control)
Summary of the method: as §1

[14] = system: ryegrass, Italian (Italian ryegrass, Lolium multiflorum); assay: Test A postemergence; details: postemergence, 0 to 100 scale (0 no effect, 100 complete control)
Summary of the method: as §1

[15] = system: wheat (Triticum aestivum); assay: Test A postemergence; details: postemergence, 0 to 100 scale (0 no effect, 100 complete control)
Summary of the method: as §1

[16] = system: barnyardgrass (Echinochloa crus-galli); assay: Test B flooded paddy test; details: Flood, 500 g ai/ha; 0 to 100 scale where 0 is no effect and 100 is complete control; 13 to 15 d
Summary of the method: (§2)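 Response scored visually against untreated controls, 0 = no effect and 100 = complete control, 13–15 d after treatment in the greenhouse. Compounds added to paddy water held 3 cm above soil surface. Treatment given at 2-leaf stage.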

[17] = system: ducksalad (Heteranthera limosa); assay: Test B flooded paddy test; details: Flood, 500 g ai/ha; 0 to 100 scale where 0 is no effect and 100 is complete control; 13 to 15 d
Summary of the method: as §2

rice (Oryra sativa) = assay: Test B flooded paddy test; details: Flood, 500 g ai/ha; 0 to 100 scale where 0 is no effect and 100 is complete control; 13 to 15 d
Summary of the method: as §2

[18] = system: sedge, umbrella (small-flower umbrella sedge, Cyperus difformis); assay: Test B flooded paddy test; details: Flood, 500 g ai/ha; 0 to 100 scale where 0 is no effect and 100 is complete control; 13 to 15 d
Summary of the method: as §2

[19] = system: pigweed (Amaranthus retroflexus); assay: Test C preemergence; details: for Plant response rating (scale of 0 to 100), Pigweed: 31 g ai/ha, 0 is no effect, 100 is complete control; for Plant response rating, Pigweed: scale 0 to 100, 0 no effect, 100 complete control
Description: Seeds of plant species selected from blackgrass (Alopecurus myosuroides), ryegrass, Italian (Italian ryegrass, Lolium multiflorum), wheat (winter wheat, Triticum aestivum), Galium (catchweed bedstraw, Galium aparine), corn (Zea mays), crabgrass, large (large crabgrass, Digitaria sanguinalis), foxtail, giant (giant foxtail, Setaria faberii), johnsongrass (Sorghum halepense), lambsquarters (Chenopodium album), morningglory (Ipomoea coccinea), nutsedge, yellow (yellow nutsedge, Cyperus esculentus), pigweed (Amaranthus retroflexus), ragweed (common ragweed, Ambrosia elatior), soybean (Glycine max), barnyardgrass (Echinochloa crus-galli), oilseed rape (Brassica napus), waterhemp (common waterhemp, Amaranthus rudis) and velvetleaf (Abutilon theophrasti) were planted into a blend of loam soil and sand and treated preemergence with test chemicals formulated in a non-phytotoxic solvent mixture which included a surfactant.
At the same time, plants selected from these crop and weed species and also Kochia (Kochia scoparia), oat, wild (wild oat, Avena fatua), and chickweed (common chickweed, Stellaria media) were planted in pots containing Sunshine Redi-Earth® planting medium comprising spaghnum peat moss, vermiculite, starter nutrients and dolomitic limestone and treated with postemergence applications of test chemicals formulated in the same manner. Plants ranged in height from 2 to 18 cm (1- to 4-leaf stage) for postemergence treatments. Treated plants and controls were maintained in a greenhouse for 13 to 15 d, after which time all species were compared to controls and visually evaluated. Plant response ratings, summarized in Table C, are based on a scale of 0 to 100 where 0 is no effect and 100 is complete control. A dash (-) response means no test result.

[20] = 125 g ai/ha, visual rating after approx. 10 d, 0 to 100 scale where 0 is no effect and 100 is complete control
[21] = 500 g ai/ha, 0 to 100 scale, 0 = no effect, 100 = complete control
[22] = 125 g ai/ha, visual injury after approximately 10 d
[23] = 500 g ai/ha, visual injury, approx. 10 d

O=C1NCC(c2cccc(OC(F)(F)C(F)F)c2)C1C(=O)Nc1cccc(F)c1F (racemic) [Compound 697]
30: Plant response rating, Kochia (Kochia (Kochia scoparia) [1]; [20]) | Plant response rating, Blackgrass [10, 22] | Plant response rating, Ragweed [13, 22] | Plant response rating, Ryegrass, Italian [14, 23]
60: Plant response rating, Ragweed [5, 21] | Plant response rating, Kochia (Kochia (Kochia scoparia) [8]; [22]) | Plant response rating, Kochia (Kochia (Kochia scoparia) [8]; [23])
90: Plant response rating, Barnyardgrass [2, 20] | Plant response rating, Barnyardgrass [2, 21] | Plant response rating, Foxtail, Giant [3, 20] | Plant response rating, Foxtail, Giant [3, 21] | Plant response rating, Barnyardgrass [9, 23] | Plant response rating, Barnyardgrass [16] | Plant response rating, Ducksalad [17]
0: Plant response rating, Rice (rice (Oryra sativa)) | Plant response rating, Sedge, Umbrella [18]
40: Plant response rating, Ryegrass, Italian [6, 20] | Plant response rating, Blackgrass [10, 23] | Plant response rating, Wheat [15, 23]
85: Plant response rating, Pigweed ([19]; 125 g ai/ha) | Plant response rating, Pigweed ([19]; 250 g ai/ha)
75: Plant response rating (scale of 0 to 100), Pigweed [19]
80: Plant response rating, Kochia (Kochia (Kochia scoparia) [1]; [21]) | Plant response rating, Barnyardgrass [9, 22] | Plant response rating, Corn (corn (Zea mays); [23]) | Plant response rating, Foxtail, Giant [11, 22] | Plant response rating, Foxtail, Giant [11, 23] | Plant response rating, Pigweed ([19]; 62 g ai/ha)
70: Plant response rating, Corn (corn (Zea mays); [22])
20: Plant response rating, Ryegrass, Italian [14, 22] | Plant response rating, Wheat [15, 22]
50: Plant response rating, Pigweed [4, 20] | Plant response rating, Pigweed [4, 21] | Plant response rating, Ragweed [5, 20] | Plant response rating, Ryegrass, Italian [6, 21] | Plant response rating, Galium [7, 22] | Plant response rating, Galium [7, 23] | Plant response rating, Pigweed [12, 22] | Plant response rating, Pigweed [12, 23] | Plant response rating, Ragweed [13, 23]

O=C1NCC(c2cccc(OC(F)(F)C(F)F)c2)C1C(=O)Nc1ccc(F)c(F)c1F (racemic) [Compound 698]
20: Plant response rating, Ragweed [13, 22]
60: Plant response rating, Ryegrass, Italian [6, 21] | Plant response rating, Kochia (Kochia (Kochia scoparia) [8]; [23]) | Plant response rating, Pigweed [12, 23]
0: Plant response rating, Ragweed [5, 20] | Plant response rating, Rice (rice (Oryra sativa)) | Plant response rating, Sedge, Umbrella [18]
85: Plant response rating, Pigweed ([19]; 62 g ai/ha)
50: Plant response rating, Kochia (Kochia (Kochia scoparia) [1]; [20]) | Plant response rating, Pigweed [4, 20] | Plant response rating, Pigweed [4, 21] | Plant response rating, Ragweed [5, 21] | Plant response rating, Galium [7, 22] | Plant response rating, Galium [7, 23] | Plant response rating, Kochia (Kochia (Kochia scoparia) [8]; [22]) | Plant response rating, Barnyardgrass [16]
90: Plant response rating, Barnyardgrass [2, 21] | Plant response rating, Foxtail, Giant [3, 20] | Plant response rating, Foxtail, Giant [3, 21] | Plant response rating, Ducksalad [17] | Plant response rating, Pigweed ([19]; 125 g ai/ha) | Plant response rating, Pigweed ([19]; 250 g ai/ha)
75: Plant response rating (scale of 0 to 100), Pigweed [19]
80: Plant response rating, Barnyardgrass [2, 20] | Plant response rating, Barnyardgrass [9, 23] | Plant response rating, Corn (corn (Zea mays); [22]) | Plant response rating, Corn (corn (Zea mays); [23]) | Plant response rating, Foxtail, Giant [11, 22] | Plant response rating, Foxtail, Giant [11, 23]
30: Plant response rating, Ryegrass, Italian [6, 20] | Plant response rating, Blackgrass [10, 22] | Plant response rating, Ryegrass, Italian [14, 22] | Plant response rating, Ryegrass, Italian [14, 23] | Plant response rating, Wheat [15, 22]
70: Plant response rating, Barnyardgrass [9, 22]
40: Plant response rating, Kochia (Kochia (Kochia scoparia) [1]; [21]) | Plant response rating, Blackgrass [10, 23] | Plant response rating, Pigweed [12, 22] | Plant response rating, Ragweed [13, 23] | Plant response rating, Wheat [15, 23]

O=C1NCC(c2ccc(I)cc2)C1C(=O)Nc1cccc(F)c1F (racemic) [Compound 700]
50: Plant response rating, Blackgrass [10, 23] | Plant response rating, Pigweed ([19]; 125 g ai/ha)
60: Plant response rating, Pigweed [4, 21] | Plant response rating, Ragweed [5, 21] | Plant response rating, Galium [7, 23] | Plant response rating, Kochia (Kochia (Kochia scoparia) [8]; [23]) | Plant response rating, Wheat [15, 23]
100: Plant response rating, Ducksalad [17]
0: Plant response rating, Ragweed [5, 20] | Plant response rating, Ryegrass, Italian [6, 20] | Plant response rating, Blackgrass [10, 22] | Plant response rating, Corn (corn (Zea mays); [22]) | Plant response rating, Pigweed [12, 22] | Plant response rating, Wheat [15, 22] | Plant response rating, Rice (rice (Oryra sativa)) | Plant response rating, Sedge, Umbrella [18] | Plant response rating (scale of 0 to 100), Pigweed [19]
65: Plant response rating, Pigweed ([19]; 250 g ai/ha)
40: Plant response rating, Pigweed [4, 20] | Plant response rating, Galium [7, 22] | Plant response rating, Ryegrass, Italian [14, 23]
90: Plant response rating, Barnyardgrass [2, 20] | Plant response rating, Barnyardgrass [2, 21] | Plant response rating, Foxtail, Giant [3, 20] | Plant response rating, Foxtail, Giant [3, 21] | Plant response rating, Foxtail, Giant [11, 23]
15: Plant response rating, Pigweed ([19]; 62 g ai/ha)
85: Plant response rating, Barnyardgrass [16]
30: Plant response rating, Kochia (Kochia (Kochia scoparia) [1]; [20]) | Plant response rating, Ryegrass, Italian [6, 21] | Plant response rating, Kochia (Kochia (Kochia scoparia) [8]; [22]) | Plant response rating, Pigweed [12, 23] | Plant response rating, Ragweed [13, 23] | Plant response rating, Ryegrass, Italian [14, 22]
20: Plant response rating, Ragweed [13, 22]
70: Plant response rating, Kochia (Kochia (Kochia scoparia) [1]; [21]) | Plant response rating, Barnyardgrass [9, 22] | Plant response rating, Barnyardgrass [9, 23] | Plant response rating, Corn (corn (Zea mays); [23]) | Plant response rating, Foxtail, Giant [11, 22]

From patent US12077503B2, “Substituted cyclic amides and their use as herbicides” (FMC CORPORATION, priority 2015, dated 2024)
